{"source": "patent US11242337B2", "about": "“Compounds useful for treating gastrointestinal tract disorders” (Ardelyx, Inc., priority 2017, dated 2022)", "system": "absorption of sodium from the intestinal lumen", "assay": "Inhibition of intestinal sodium absorption in mice", "type": "in vivo", "details": "CD-1 mice, 15 mg/kg oral gavage twice daily; for Fecal fluid content (Δ from vehicle): day 3, change from vehicle group mean; for response vs control in vivo at 15 mg/kg: Mus musculus, 72 h, day 3, normalized to dietary sodium intake", "experimental": "Urinary and fecal sodium excretions were measured to assess the ability of selected example compounds to inhibit the absorption of sodium from the intestinal lumen. In addition, an assessment of the absence or presence of diarrhea in response to compound treatment was made. Approximately eight-week old, male, CD-1 mice were purchased from Envigo (Livermore, Calif.), were housed 6 per cage and acclimated for at least 48 hours before study initiation. Animals were fed Harlan Teklad Global TD.160470 rodent chow (Madison, Wis.), standard laboratory rodent chow Harlan Teklad Global 2018 with the addition of 0.4% inorganic phosphorous. […] To initiate the study, mice were weighed and then individually placed in metabolic cages. Following a 3-day acclimation period to the metabolic cage, a 24-hr baseline collection of urine and feces was performed. […] Each day, measurements of body weight. 24-hour food intake, water intake, urine volume and wet fecal weight were recorded, along with any observation of diarrhea. Fecal samples were dried using a lyophilizer for at least 3 days, following which dry weight was recorded and fecal fluid content was calculated based on the difference between the wet and dry stool weights. Fecal fluid content on day 3 of compound treatment was calculated as a change from the vehicle group mean. For urine samples, the volumes were determined gravimetrically. Feces and urine were analyzed for sodium content by microwave plasma-atomic emission spectroscopy or ion chromatography, respectively. Urine samples were analyzed on an ion chromatography system (Thermo Fisher ICS-3000 or ICS-5000+) coupled with conductivity detectors. Chromatographic separation of cations was performed using an IonPac CS12A (Thermo Fisher) 2×250 mm analytical column with an isocratic elution using […] methanesulfonic acid. Concentrations were interpolated from a a standard curve (prepared in 10 mM HCl) for sodium ion based on retention time and peak area. Fecal sample analysis by Microwave Plasma Atomic Emission Spectrometry (MP-AES). Dry fecal samples were ground into a fine powder on a homogenizer and the ground samples (400-600 mg aliquots weighed) were digested with nitric acid by microwave method (Mars 6). These digested samples were diluted with 1% Nitric acid and analyzed on Agilent 4100 MP-AES. Concentrations were calculated relative to a standard curve (prepared in 1% Nitric acid) for sodium based on the signal intensity. Sodium was detected at a wavelength of 588.995 nm. Twenty-four-hour urinary sodium excretion (ma/24-hours) was calculated by multiplying urinary sodium concentration by 24-hour urine volume. Twenty-four-hour fecal sodium excretion (mg/24-hours) was calculated by multiplying fecal sodium concentration by 24-hour dry fecal weight. The urinary and fecal sodium excretion on day 3 of compound treatment were normalized to dietary sodium intake and expressed as a percentage of the vehicle mean.", "key": {"[1]": {"details": "read-out: Fecal Na Excretion (% of vehicle)"}, "[2]": {"details": "read-out: Urinary Na Excretion (% of vehicle)"}}, "note": "Read-outs that look alike come from different tables or passages of the source."}
{"smiles": "Cc1cc(S(=O)(=O)N2CC[C@@H](COc3ccnc(CNC(=O)NCCCCNC(=O)NCc4cc(OC[C@@H]5CCN(S(=O)(=O)c6ccc(O[C@H]7c8cc(Cl)cc(Cl)c8C[C@@H]7N(C)C)c(C)c6)C5)ccn4)c3)C2)ccc1O[C@H]1c2cc(Cl)cc(Cl)c2C[C@@H]1N(C)C", "note": "[Example 49, 3-[(4-[[(3R)-1-[(4-[[(1S,2S)-4,6-Dichloro-2-(dimethylamino)-2,3-dihydro-1H-inden-1-yl]oxy]-3-methylbenzene)sulfonyl]pyrrolidin-3-yl]methoxy]pyridin-2-yl)methyl]-1-[4-([[(4-[[(3R)-1-[(4-[[(1S,2S)-4,6-dichloro-2-(dimethylamino)-2,3-dihydro-1H-inden-1-yl]oxy]-3-methylbenzene)sulfonyl]pyrrolidin-3-yl]methoxy]pyridin-2-yl)methyl]carbamoyl]amino)butyl]urea]", "values": [{"measurement": "Fecal fluid content (Δ from vehicle)", "value": "A (<5)"}, {"measurement": "response vs control in vivo at 15 mg/kg", "setting": "[1]", "value": "< 150", "unit": "%"}, {"measurement": "response vs control in vivo at 15 mg/kg", "setting": "[2]", "value": "> 70", "unit": "%"}]}
{"smiles": "Cc1cc(S(=O)(=O)N[C@H]2CCN(CCOCCNC(=O)NCCCCNC(=O)NCCOCCN3CC[C@H](NS(=O)(=O)c4ccc(O[C@H]5c6cc(Cl)cc(Cl)c6C[C@@H]5N(C)C)c(C)c4)C3)C2)ccc1O[C@H]1c2cc(Cl)cc(Cl)c2C[C@@H]1N(C)C", "note": "[Example 52, 3-(2-[2-[(3S)-3-[(4-[[(1S,2S)-4,6-Dichloro-2-(dimethylamino)-2,3-dihydro-1H-inden-1-yl]oxy]-3-methylbenzene)sulfonamido]pyrrolidin-1-yl]ethoxy]ethyl)-1-(4-[[(2-[2-[(3S)-3-[(4-[[(1S,2S)-4,6-dichloro-2-(dimethylamino)-2,3-dihydro-1H-inden-1-yl]oxy]-3-methylbenzene)sulfonamido]pyrrolidin-1-yl]ethoxy]ethyl)carbamoyl]amino]butyl)urea]", "values": [{"measurement": "Fecal fluid content (Δ from vehicle)", "value": "B (5-10)"}, {"measurement": "response vs control in vivo at 15 mg/kg", "setting": "[1]", "value": "> 200", "unit": "%"}, {"measurement": "response vs control in vivo at 15 mg/kg", "setting": "[2]", "value": "50 to 70", "unit": "%"}]}
{"smiles": "Cc1cc(S(=O)(=O)N[C@@H]2CCN(CCOCCNC(=O)NCCCCNC(=O)NCCOCCN3CC[C@@H](NS(=O)(=O)c4ccc(O[C@H]5c6cc(Cl)cc(Cl)c6C[C@@H]5N(C)C)c(C)c4)C3)C2)ccc1O[C@H]1c2cc(Cl)cc(Cl)c2C[C@@H]1N(C)C", "note": "[Example 53, 3-(2-[2-[(3R)-3-[(4-[[(1S,2S)-4,6-Dichloro-2-(dimethylamino)-2,3-dihydro-1H-inden-1-yl]oxy]-3-methylbenzene)sulfonamido]pyrrolidin-1 yl]ethoxy]ethyl)-1-(4-[[(2-[2-[(3R)-3-[(4-[[(1S,2S)-4,6-dichloro-2-(dimethylamino)-2,3-dihydro-1H-inden-1-yl]oxy]-3-methylbenzene)sulfonamido]pyrrolidin-1-yl]ethoxy]ethyl)carbamoyl]amino]butyl)urea]", "values": [{"measurement": "Fecal fluid content (Δ from vehicle)", "value": "B (5-10)"}, {"measurement": "response vs control in vivo at 15 mg/kg", "setting": "[1]", "value": "< 150", "unit": "%"}, {"measurement": "response vs control in vivo at 15 mg/kg", "setting": "[2]", "value": "> 70", "unit": "%"}]}
{"smiles": "Cc1cc(S(=O)(=O)N[C@@H]2CCN(CCOCCNC(=O)NCCCCNC(=O)NCCOCCN3CC[C@@H](NS(=O)(=O)c4ccc(O[C@H]5c6cc(Cl)cc(C#N)c6C[C@@H]5N(C)C)c(C)c4)C3)C2)ccc1O[C@H]1c2cc(Cl)cc(C#N)c2C[C@@H]1N(C)C", "note": "[Example 55, 3-(2-[2-[(3R)-3-[(4-[[(1S,2S)-6-Chloro-4-cyano-2-(dimethylamino)-2,3-dihydro-1H-inden-1-yl]oxy]-3-methylbenzene)sulfonamido]pyrrolidin-1-yl]ethoxy]ethyl)-1-(4-[[(2-[2-[(3R)-3-[(4-[[(1S,2S)-6-chloro-4-cyano-2-(dimethylamino)-2,3-dihydro-1H-inden-1-yl]oxy]-3-methylbenzene)sulfonamido]pyrrolidin-1-yl]ethoxy]ethyl)carbamoyl]amino]butyl)urea]", "values": [{"measurement": "Fecal fluid content (Δ from vehicle)", "value": "B (5-10)"}, {"measurement": "response vs control in vivo at 15 mg/kg", "setting": "[1]", "value": "150 to 200", "unit": "%"}, {"measurement": "response vs control in vivo at 15 mg/kg", "setting": "[2]", "value": "> 70", "unit": "%"}]}
{"smiles": "Cc1cc(O[C@H]2c3cc(Cl)cc(Cl)c3C[C@@H]2N(C)C)c(F)cc1S(=O)(=O)NCCOCCOCCNC(=O)NCCCCNC(=O)NCCOCCOCCNS(=O)(=O)c1cc(F)c(O[C@H]2c3cc(Cl)cc(Cl)c3C[C@@H]2N(C)C)cc1C", "note": "[Example 88, 3-[2-(2-[2-[(4-[[(1S,2S)-4,6-Dichloro-2-(dimethylamino)-2,3-dihydro-1H-inden-1-yl]oxy]-5-fluoro-2-methylbenzene)sulfonamido]ethoxy]ethoxy)ethyl]-1-[4-([[2-(2-[2-[(4-[[(1S,2S)-4,6-dichloro-2-(dimethylamino)-2,3-dihydro-1H-inden-1-yl]oxy]-5-fluoro-2-methylbenzene)sulfonamido]ethoxy]ethoxy)ethyl]carbamoyl]amino)butyl]urea]", "values": [{"measurement": "Fecal fluid content (Δ from vehicle)", "value": "B (5-10)"}, {"measurement": "response vs control in vivo at 15 mg/kg", "setting": "[1]", "value": "150 to 200", "unit": "%"}, {"measurement": "response vs control in vivo at 15 mg/kg", "setting": "[2]", "value": "50 to 70", "unit": "%"}]}
